Where two headings read alike, the source gives them in different places.

For series [1] the following is noted: cited from earlier work; for Alkalinity / base strength in words: aqueous solution.
Series [2] in a line: In vitro keratolysis study: release of protein from ground callus (BioRad protein assay). The note with it: for Protein release compared with glycolic acid, other bases / water control: 10 minutes (Example 7); for Protein release compared with glycolic acid / water control: all time points (Example 6). As for the experimental part: An in vitro keratolysis study was performed to compare the capability of glycolic acid and a base for removing protein from stratum corneum. Adult foot callus was collected, grounded and the portion between 50-80 mesh was used. Glycolic acid and sodium hydroxide solutions (concentration=0.05 M) were prepared in distilled water. Ten mg of ground callus powder was place in a test tube. Four ml of a test chemical was added to the callus and the test tube was placed in a shaker and incubated in a water bath at 37° C. for a predetermined incubation time. The incubation time periods were 10 min., 40 min, 2 hours, 4 hours, 6 hours and 24 hours. Six samples of each base were tested a total of six times each at each of the aforementioned incubation time periods.
At the end of each incubation period, the test tube was removed from the shaker and the test tube was centrifuged. The solution was removed and filtered, and the protein in the solution was then determined using a BioRad® protein assay kit.

Experiment in series [3]: as above
The note with it: incubation 40 minutes (Table 3).

For series [4] the following is noted: cited from earlier work.
The mark [5] stands for this setting: 0.05 M solutions, incubation time 10 minutes (Table 2, Example 7).
Where [6] appears, read: 0.05 M solution, 37° C., incubation 10 min (Table 1).
Where [7] appears, read: 0.05 M solution, 37° C., incubation 40 min (Table 1).
[8] abbreviates: 0.05 M solution, 37° C., incubation 2 hours (Table 1).
Setting [9] is: 0.05 M solution, 37° C., incubation 4 hours (Table 1).
Where [10] appears, read: 0.05 M solution, 37° C., incubation 6 hours (Table 1).
Setting [11] is: 0.05 M solution, 37° C., incubation 24 hours (Table 1).

In the case of `CN(C)C` [Trimethylamine], in series [1], the “Alkalinity / base strength in words” value is recorded as “Strong base”.
With `C[N+](C)(C)CC(=O)O` [Betaine], the “Amount of Protein Released” value in series [2] (setting [5]) amounted to 0.144 mg/4 ml.
In the case of `O=C([O-])[O-].[K+].[K+]` [Potassium carbonate], the “Amount of Protein Released” value in series [3] (0.005% solution) is 0.068 mg/4 ml; in series [3] (0.01% solution), 0.073 mg/4 ml.
As for `O=P([O-])([O-])O.[Na+].[Na+]` [Sodium phosphate, dibasic], the “pH of Aqueous Solution (concentration)” value in series [1] (concentration not given) is given as “˜9.5”.
`O=C(O)CO` [Glycolic Acid, reference compound]: the “Amount of Protein Released” value turned out to be 0.093 mg/4 ml in series [2] (setting [6]); 0.175 mg/4 ml in series [2] (setting [7]); 0.126 mg/4 ml in series [2] (setting [8]); 0.219 mg/4 ml in series [2] (setting [9]); 0.089 mg/4 ml in series [2] (setting [10]); 0.173 mg/4 ml in series [2] (setting [11]). In addition, the “Amount of Protein Released” value in series [2] (setting [5]) is reported as 0.187 mg/4 ml. The “Protein release compared with glycolic acid, other bases / water control” value in series [2] (0.05 M) is listed as “did not show significant differences in comparison with water”. In addition, the “Protein release compared with glycolic acid / water control” value in series [2] (0.05 M) is on record as “did not show statistical differences in comparison with water”.
As to `CC(C)(N)CO` [2-amino-2-methyl-1-propanol], the “pH of Aqueous Solution (concentration)” value in series [1] (0.1 m) was 11.3 (0.1 m).
Regarding `C1CCNCC1` [Piperidine], the “Amount of Protein Released” value in series [3] (0.005% solution) is 0.066 mg/4 ml; in series [3] (0.01% solution), 0.071 mg/4 ml. Also, in series [1], the “Alkalinity / base strength in words” value is “Strong base”.
On to `C1CCNC1` [Pyrrolidine], for which the “Amount of Protein Released” value in series [3] (0.005% solution) came out at 0.060 mg/4 ml; in series [3] (0.01% solution), 0.066 mg/4 ml. In series [1], the “Alkalinity / base strength in words” value was “Strong base”.
On to `[O]=[Mg]` [Magnesium oxide], for which the “pH of Aqueous Solution (concentration)” value in series [1] (saturated solution in water) is 10.3 (saturated aqueous solution).
As for `CC(=O)[O-].[K+]` [Potassium acetate], the “Amount of Protein Released” value in series [3] (0.005% solution) amounted to 0.060 mg/4 ml; in series [3] (0.01% solution), 0.064 mg/4 ml.
With `NCCc1ccccc1` [Phenethylamine], the “Alkalinity / base strength in words” value in series [1] is reported as “Strong base”.
With `CCC(N)CO` (centres unmarked) [2-amino-1-butanol], the “Amount of Protein Released” value in series [2] (setting [5]) turned out to be 0.174 mg/4 ml.
Consider `O=C([O-])CC(O)(CC(=O)[O-])C(=O)[O-].[K+].[K+].[K+]` [Potassium citrate], for which the “pH of Aqueous Solution (concentration)” value in series [1] (concentration not given) is listed as “˜8.5”.
With `O.O.O.O.O.O.O.O.O.O.O.O.O=P([O-])([O-])[O-].[Na+].[Na+].[Na+]` [Sodium phosphate, tribasic dodecahydrate], the results for the “pH of Aqueous Solution (concentration)” value in series [1] (0.1%), in series [1] (0.5%) and in series [1] (1% (1.0%)) were 11.5, 11.7 and 11.9, respectively.
Turning to `CC(=O)[O-].[Na+]` [Sodium acetate, anhydrous], the “pH of Aqueous Solution (concentration)” value in series [1] (0.1 N) is “˜8.9 (0.1 N)”.
`N` [Ammonium hydroxide]: the “pH of Aqueous Solution (concentration)” value in series [1] (0.001 N) is 10.27; in series [1] (1 N), 11.27.
In the case of `N[C@@H](Cc1c[nH]c2ccccc12)C(=O)O` [L-tryptophan], the “Amount of Protein Released” value in series [2] (setting [5]) is on record as 0.170 mg/4 ml.
`O.O.O.O.O.O.O.O.O.O.O.O.O=P([O-])([O-])O.[Na+].[Na+]` [Sodium phosphate, dibasic, dodecahydrate]: the “pH of Aqueous Solution (concentration)” value in series [1] (concentration not given) was “˜9.5”.
With `N.N.O=P(O)(O)O` [Ammonium phosphate, dibasic], the “pH of Aqueous Solution (concentration)” value in series [1] (concentration not given) is “˜8”.
In the case of `NC1CCCCC1` [Cyclohexylamine], the “Alkalinity / base strength in words” value in series [1] was “Strong base”.
For the compound `O=C([O-])[O-].[Na+].[Na+]` [Sodium carbonate anhydrous], the “pH of Aqueous Solution (concentration)” value in series [1] (concentration not given) is recorded as “˜11.6”.
Consider `OCCNCCO` [Diethanolamine], for which the “Amount of Protein Released” value in series [2] (setting [5]) is reported as 0.144 mg/4 ml. The “pH of Aqueous Solution (concentration)” value in series [1] (0.1 N) is 11.0 (0.1 N).
Regarding `[Na+].[OH-]` [NaOH, Sodium hydroxide], the “Amount of Protein Released” value worked out at 0.059 mg/4 ml in series [3] (0.005% solution); 0.074 mg/4 ml in series [3] (0.01% solution); 0.419 mg/4 ml in series [2] (setting [6]); 0.739 mg/4 ml in series [2] (setting [7]); 0.899 mg/4 ml in series [2] (setting [8]); 1.003 mg/4 ml in series [2] (setting [9]). In addition, the figures for the “Amount of Protein Released” value in series [2] (setting [10]), in series [2] (setting [11]) and in series [2] (setting [5]) were 4.853 mg/4 ml, 5.148 mg/4 ml and 0.544 mg/4 ml, respectively. Further, in series [2] (0.05 M), the “Protein released at 6 hours and 24 hours compared with 10 minutes, 40 minutes, 2 hours and 4 hours” value was “significantly higher”. The “Protein release compared with glycolic acid, other bases / water control” value in series [2] (0.05 M) is given as “released more protein”. Also, the “Protein release compared with glycolic acid / water control” value in series [2] (0.05 M) was “released more protein”. In addition, the “pH of Aqueous Solution (concentration)” value is recorded as 12 in series [1] (0.05%), 13 in series [1] (0.5%) and 14 in series [1] (5%).
Regarding `O=B[O-].[Na+]` [Sodium metaborate], in series [1], the “Alkalinity / base strength in words” value is recorded as “Strongly alkaline”.
Regarding `[O]=[Ca]` [Calcium oxide], the “Solubility in water” value in series [4] is reported as “Soluble in water, Form Ca(OH)2”.
Take `N=C(N)NCCC[C@H](N)C(=O)O` [Arginine]: the “Amount of Protein Released” value in series [2] (setting [5]) worked out at 0.153 mg/4 ml.
As to `O.O.O.O.O.O.O.O=P([O-])([O-])O.[Na+].[Na+]` [Sodium phosphate, dibasic, heptahydrate], in series [1] (concentration not given), the “pH of Aqueous Solution (concentration)” value is “˜9.5”.
In the case of `O=P([O-])([O-])O.[K+].[K+]` [Potassium phosphate, dibasic], the “Alkalinity / base strength in words” value in series [1] was “Aqueous solution is slightly alkaline”.
Take `CC(N)(CO)CO` [2-amino-2-methyl-1,3-propanediol]: the “pH of Aqueous Solution (concentration)” value in series [1] (0.1 m) is on record as 10.8 (0.1 m).
Regarding `O=P([O-])([O-])O.[Na+].[Na+]` [Sodium phosphate, dibasic, anhydrous], in series [1] (1% (1.0%)), the “pH of Aqueous Solution (concentration)” value is given as 9.1 (1%).
Turning to `O=P([O-])([O-])[O-].[Na+].[Na+].[Na+]` [Sodium phosphate, tribasic], the “Amount of Protein Released” value in series [3] (0.005% solution) is 0.048 mg/4 ml; in series [3] (0.01% solution), 0.050 mg/4 ml.
On to `NCCN` [Ethylenediamine], for which the “Amount of Protein Released” value in series [3] (0.005% solution) worked out at 0.059 mg/4 ml; in series [3] (0.01% solution) it was 0.080 mg/4 ml. In addition, the “Alkalinity / base strength in words” value in series [1] is given as “Strong base”.
As for `O.O.O=P([O-])([O-])O.[Na+].[Na+]` [Sodium phosphate, dibasic, dihydrate], the “pH of Aqueous Solution (concentration)” value in series [1] (concentration not given) is “˜9.5”.

The values are drawn from patent US20030235543A1, “Topical administration of pharmacologically active bases for skin lightening” (priority 2002, published 2003).
